Among the data in patent US12448394B2, “Heterocyclic pyrazole derivatives as type III receptor tyrosine kinase inhibitors” (DEVELOPMENT CENTER FOR BIOTECHNOLOGY, priority 2019, dated 2025) are IC50 values, retold here.

SMILES strings stand for the structures. Like-named read-outs stand apart in the source and are kept apart here. A value given as a limit tells only on which side of the number the result lay.

For one test, the target named is T1, FLT3-D835Y mutant kinase (Homo sapiens, UniProt P36888, D835Y).
T1 construct: purchased SignalChem
T1 sequence (P36888 27-993 D835Y): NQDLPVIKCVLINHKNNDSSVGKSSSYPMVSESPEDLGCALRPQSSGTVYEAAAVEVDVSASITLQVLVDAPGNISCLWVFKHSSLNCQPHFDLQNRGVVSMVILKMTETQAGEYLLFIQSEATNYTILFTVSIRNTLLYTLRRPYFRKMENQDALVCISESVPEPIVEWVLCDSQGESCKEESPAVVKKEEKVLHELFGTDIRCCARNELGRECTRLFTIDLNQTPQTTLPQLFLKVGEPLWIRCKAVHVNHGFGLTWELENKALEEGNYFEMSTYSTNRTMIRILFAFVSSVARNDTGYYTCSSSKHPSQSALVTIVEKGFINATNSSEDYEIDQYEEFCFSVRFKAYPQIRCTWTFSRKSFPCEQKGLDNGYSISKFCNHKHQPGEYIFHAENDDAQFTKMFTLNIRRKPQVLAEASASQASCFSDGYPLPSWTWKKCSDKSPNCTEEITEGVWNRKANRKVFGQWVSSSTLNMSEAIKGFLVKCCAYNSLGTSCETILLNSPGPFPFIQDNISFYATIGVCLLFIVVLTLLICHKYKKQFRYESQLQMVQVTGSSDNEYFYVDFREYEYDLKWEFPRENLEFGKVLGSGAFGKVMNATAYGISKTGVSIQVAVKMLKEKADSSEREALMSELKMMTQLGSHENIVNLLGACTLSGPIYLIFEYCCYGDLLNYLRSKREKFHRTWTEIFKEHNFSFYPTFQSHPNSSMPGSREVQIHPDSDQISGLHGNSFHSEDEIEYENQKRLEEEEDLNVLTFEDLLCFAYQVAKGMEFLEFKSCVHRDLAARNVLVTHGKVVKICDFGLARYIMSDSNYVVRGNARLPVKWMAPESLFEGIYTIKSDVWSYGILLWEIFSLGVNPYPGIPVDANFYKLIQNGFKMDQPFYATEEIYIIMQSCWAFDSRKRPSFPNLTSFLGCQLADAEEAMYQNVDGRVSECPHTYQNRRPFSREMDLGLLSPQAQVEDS
Put plainly: FLT3-D835Y mutant kinase assay (AlphaScreen). As to conditions: read-out: Ranking of IC50 values, FLT3-D835Y. It counts as biochemical. An outline of the steps:
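AlphaScreen readout of biotin-poly(Glu4:Tyr1) phosphorylation by 1 ng recombinant FLT3-D835Y. Conditions were 10 μM ATP, 10 mM MgCl2, MOPS pH 7.0, 30 min at 30 °C, EDTA stop. Compounds were serially diluted in duplicate to derive IC50.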
(In general: Alpha assays give light when donor and acceptor beads are brought close together.)

Test [1] relates to Molm-14 human acute myeloid leukemia cell with FLT3-ITD mutation. Briefly: Molm-14 cell proliferation assay (CellTiter 96). It counts as cell-based. The settings on record: Molm-14 cells, 72 hours treatment, CellTiter96, read-out: anti-proliferation activity Molm-14 (FLT3-ITD), IC50 ranking. How it is done: Inhibitions of cell growths by compounds were measured using CellTiter™-96 assay. The cytotoxicities of compounds of the invention were evaluated in cell line panels with different signaling pathway dependencies, including MV4-11 human acute myeloid leukemia cell with FLT3-ITD mutation, Molm-14 human acute myeloid leukemia cell with FLT3-ITD mutation, THP-1 human acute monocytic leukemia cell with NRAS G12D mutation, A375 melanoma cell with BRAF V600E mutation, and HCC827 NSCLC cell with EGFR exon 19 deletion mutation.
The compounds disclosed herein were tested in Molm-14 cell proliferation assay to determine their cellular potencies against FLT3 signal pathway dependent cell growths. Molm-14 cells are human acute myeloid leukemia (AML) cells harboring ligand-independent FLT3-ITD activating mutation, which renders the abnormal proliferation of the AML cells FLT3 signaling pathway dependent. Inhibition of FLT3 kinase activity will result in reduced growths and/or cell deaths. […] Briefly, cells were grown in RPMI 1640 medium supplemented with 10% heat inactivated fetal bovine serum and incubated at 37° C. in 5% CO2 atmosphere. Cells were allowed to expand until reaching saturation, at which point they were sub-cultured or harvested for assay use.
MV4-11, Molm-14, THP-1, A375, and HCC827 cells were seeded into 96-well plates at 6500, 25000, 5000, 2000 and 8000 cells/well, respectively, and incubated at 37° C., 5% CO2 overnight. Then, these seeded cells were treated with increasing concentrations of the test compounds and incubated for another 72 hours. At the end of the incubation, CellTiter96® AQueous One Solution Reagent (Promega, […]) was added and incubated for the additional 2˜4 hours. Cell viability was determined by measuring absorbance at 490 nm using EMax® microplate reader (Molecular Devices, San Jose, CA, USA).

Another test concerns the target T2, MET kinase (Homo sapiens, UniProt P08581).
T2 construct: purchased SignalChem
Briefly: MET kinase assay (AlphaScreen, counter screen). It counts as biochemical. As to conditions: read-out: Ranking of IC50 values, MET. How it is done:
Because MET kinase belonged to Class VIII RTK family have one transmembrane a chain linked with one extracellular β chain which is different form Class III RTK family with 5 Immunoglobin-like extracellular domains. Standard assay conditions were 1 ng of recombinant MET kinase (SignalChem) with 3 ng Biotin-conjugated Poly-(Glu 4: Tyr 1) (Cisbio) in the assay buffer ([…], 10 mM MOPs, pH 7.0, 0.21 mM EDTA, 0.5% glycerol, 1 mg/mL BSA, 0.01% 2-mercaptoethanol, 0.001% Brij35, 10 mM MgCl2) in a final volume of 25 μL. Reactions were incubated at 30° C. for 45 min and stopped by adding 5 μL of 50 mM EDTA. Analysis of resulting product using an AlphaScreen kit and counted with Enspire Alpha (PerkinElmer). […] The IC50 values of inhibitors were determined after carrying out assays with each compound at serially diluted concentrations in duplication. The results were analyzed using linear regression software (GraphPad Prism 5; GraphPad Software Inc.)

T2 sequence (P08581 25-1390): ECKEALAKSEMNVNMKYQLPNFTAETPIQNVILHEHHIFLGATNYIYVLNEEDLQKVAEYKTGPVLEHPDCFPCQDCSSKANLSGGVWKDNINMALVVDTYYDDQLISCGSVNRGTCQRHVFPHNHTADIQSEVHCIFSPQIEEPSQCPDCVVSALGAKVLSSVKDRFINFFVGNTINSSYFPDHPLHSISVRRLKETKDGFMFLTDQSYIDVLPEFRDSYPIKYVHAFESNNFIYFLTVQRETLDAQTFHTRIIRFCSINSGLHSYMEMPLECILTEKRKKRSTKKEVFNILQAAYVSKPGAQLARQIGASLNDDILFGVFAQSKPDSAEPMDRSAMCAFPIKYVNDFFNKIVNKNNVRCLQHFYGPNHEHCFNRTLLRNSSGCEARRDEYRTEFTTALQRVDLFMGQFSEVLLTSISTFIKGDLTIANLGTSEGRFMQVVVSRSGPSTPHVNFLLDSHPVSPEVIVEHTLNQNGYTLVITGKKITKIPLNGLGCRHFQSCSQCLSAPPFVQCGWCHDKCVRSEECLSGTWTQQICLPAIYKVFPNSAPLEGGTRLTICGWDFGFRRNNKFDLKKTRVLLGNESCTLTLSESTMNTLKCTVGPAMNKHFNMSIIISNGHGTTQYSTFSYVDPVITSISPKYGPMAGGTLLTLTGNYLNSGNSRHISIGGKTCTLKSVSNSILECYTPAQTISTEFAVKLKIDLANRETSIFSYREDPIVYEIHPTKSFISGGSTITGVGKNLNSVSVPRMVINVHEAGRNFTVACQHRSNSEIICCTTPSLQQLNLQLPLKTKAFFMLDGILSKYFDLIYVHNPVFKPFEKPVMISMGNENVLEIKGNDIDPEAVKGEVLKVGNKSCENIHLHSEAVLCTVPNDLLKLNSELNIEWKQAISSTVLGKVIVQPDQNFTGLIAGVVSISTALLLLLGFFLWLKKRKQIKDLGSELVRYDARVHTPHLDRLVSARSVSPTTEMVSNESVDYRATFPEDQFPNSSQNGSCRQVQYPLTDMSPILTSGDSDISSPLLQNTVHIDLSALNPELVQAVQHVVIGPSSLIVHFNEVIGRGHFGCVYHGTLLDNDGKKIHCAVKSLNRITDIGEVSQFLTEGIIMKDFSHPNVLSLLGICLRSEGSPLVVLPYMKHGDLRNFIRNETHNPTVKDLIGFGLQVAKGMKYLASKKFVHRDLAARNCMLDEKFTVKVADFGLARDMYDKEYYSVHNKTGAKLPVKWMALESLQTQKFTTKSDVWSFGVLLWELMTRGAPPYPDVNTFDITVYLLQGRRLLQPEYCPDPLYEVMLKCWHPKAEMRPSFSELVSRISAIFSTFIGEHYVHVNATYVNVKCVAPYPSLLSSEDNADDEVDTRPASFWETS

In the case of `c1cc(CN2CCOCC2)ncc1-c1cc2c(s1)Cc1c(-c3ccc4cn[nH]c4c3)n[nH]c1-2` [Compound 18, 4-((5-(3-(1H-indazol-6-yl)-1,4-dihydrothieno[2′,3′:4,5]cyclopenta[1,2-c]pyrazol-6-yl)pyridin-2-yl)methyl) morpholine], the figures for the IC50 (at FLT3-D835Y mutant kinase; in test [1] (Homo sapiens); at MET kinase) were 1 to 10 nM, under 30 nM and over 1000 nM, respectively.
Regarding `C[C@@H]1CN(C(=O)c2ccc(-c3cc4c(s3)Cc3c(-c5ccc6cnn(C)c6c5)n[nH]c3-4)cc2)C[C@H](C)O1` [Compound 19, ((2S,6R)-2,6-dimethyl-morpholino)(4-(3-(1-methyl-1H-indazol-6-yl)-1,4-dihydrothieno[2′,3′:4,5]cyclopenta[1,2-c]pyrazol-6-yl)phenyl)methanone], the IC50 on FLT3-D835Y mutant kinase is 1 to 10 nM; in test [1] (Homo sapiens), under 30 nM; on MET kinase it was over 1000 nM.
For `CC(c1ccc(-c2cc3c(s2)Cc2c(-c4ccc5cnn(C)c5c4)n[nH]c2-3)cc1)N1CCOCC1` (stereo not drawn) [Compound 20, 4-(1-(4-(3-(1-methyl-1H-indazol-6-yl)-1,4-dihydro-thieno[2′,3′:4,5]cyclopenta [1,2-c]pyrazol-6-yl)phenyl)ethyl)morpholine], in that order: 1 to 10 nM, 30 to 100 nM and over 1000 nM.
In the case of `Cn1ncc2ccc(-c3n[nH]c4c3Cc3sc(-c5ccc(C(=O)N6CCOCC6)cc5)cc3-4)cc21` [Compound 21, (4-(3-(1-methyl-1H-indazol-6-yl)-1,4-dihydro-thieno[2′,3′:4,5]cyclopenta [1,2-c]pyrazol-6-yl)phenyl) (morpholino)methanone], the IC50 at FLT3-D835Y mutant kinase was under 1 nM; in test [1] (Homo sapiens), under 30 nM; at MET kinase it was over 1000 nM.
In the case of `Cn1ncc2ccc(-c3n[nH]c4c3Cc3sc(-c5ccc(CCN6CCOCC6)cc5)cc3-4)cc21` [Compound 22, 4-(4-(3-(1-methyl-1H-indazol-6-yl)-1,4-dihydro-thieno[2′,3′:4,5]cyclopenta [1,2-c]pyrazol-6-yl)phenethyl)morpholine], the figures for the IC50 (at FLT3-D835Y mutant kinase; in test [1] (Homo sapiens); at MET kinase) were 1 to 10 nM, 30 to 100 nM and over 1000 nM, respectively.
Taken in the same sequence, the figures for `Cn1ncc2ccc(-c3n[nH]c4c3Cc3sc(-c5ccc(C(=O)N6CCOCC6)nc5)cc3-4)cc21` [Compound 23, (5-(3-(1-methyl-1H-indazol-6-yl)-1,4-dihydro-thieno[2′,3′:4,5]cyclopenta [1,2-c]pyrazol-6-yl)pyridin-2-yl)(morpholino) methanone] were under 1 nM, 30 to 100 nM and over 1000 nM.
Taken in the same sequence, the figures for `COc1cc(-c2cc3c(s2)Cc2c(-c4ccc5cnn(C)c5c4)n[nH]c2-3)ccc1CN1CCOCC1` [Compound 24, 4-(2-methoxy-4-(3-(1-methyl-1H-indazol-6-yl)-1,4-dihydrothieno[2′,3′:4,5]cyclopenta[1,2-c]pyrazol-6-yl)benzyl)morpholine] were under 1 nM, 30 to 100 nM and over 1000 nM.
Taken in the same sequence, the figures for `Cn1ncc2ccc(-c3n[nH]c4c3Cc3sc(-c5ccc(CN6CCOCC6)c(F)c5)cc3-4)cc21` [Compound 25, 4-(2-fluoro-4-(3-(1-methyl-1H-indazol-6-yl)-1,4-dihydrothieno[2′,3′:4,5]cyclopenta[1,2-c]pyrazol-6-yl)benzyl)morpholine] were 1 to 10 nM, 30 to 100 nM and over 1000 nM.
As for `Cc1cc(-c2cc3c(s2)Cc2c(-c4ccc5cnn(C)c5c4)n[nH]c2-3)ccc1CN1CCOCC1` [Compound 26, 4-(2-methyl-4-(3-(1-methyl-1H-indazol-6-yl)-1,4-dihydrothieno[2′,3′:4,5]cyclopenta[1,2-c]pyrazol-6-yl)benzyl)morpholine], the IC50 on FLT3-D835Y mutant kinase is 1 to 10 nM; in test [1] (Homo sapiens), 100 to 300 nM; at MET kinase, over 1000 nM.
Turning to `Cn1ncc2ccc(-c3n[nH]c4c3Cc3sc(-c5ccc(CN6CCOCC6)c(C(F)(F)F)c5)cc3-4)cc21` [Compound 27, 4-(4-(3-(1-methyl-1H-indazol-6-yl)-1,4-dihydrothieno[2′,3′:4,5]cyclopenta[1,2-c]pyrazol-6-yl)-2-(trifluoromethyl)benzyl)morpholine], the IC50 on FLT3-D835Y mutant kinase is 1 to 10 nM; in test [1] (Homo sapiens) it was 1000 to 10000 nM; at MET kinase, over 1000 nM.
As for `CCC(c1ccc(-c2cc3c(s2)Cc2c(-c4ccc5cnn(C)c5c4)n[nH]c2-3)cc1)N1CCOCC1` (stereo not drawn) [Compound 28, 4-(1-(4-(3-(1-methyl-1H-indazol-6-yl)-1,4-dihydro-thieno[2′,3′:4,5]cyclopenta [1,2-c]pyrazol-6-yl)phenyl)propyl)morpholine], the IC50 on FLT3-D835Y mutant kinase was 1 to 10 nM; in test [1] (Homo sapiens), 30 to 100 nM; on MET kinase it was over 1000 nM.
Taken in the same sequence, the figures for `COc1cc(CN2CCOCC2)ccc1-c1cc2c(s1)Cc1c(-c3ccc4cnn(C)c4c3)n[nH]c1-2` [Compound 29, 4-(3-methoxy-4-(3-(1-methyl-1H-indazol-6-yl)-1,4-dihydrothieno [2′,3′:4,5]cyclopenta[1,2-c]pyrazol-6-yl)benzyl) morpholine] were under 1 nM, 30 to 100 nM and over 1000 nM.
On to `Cn1ncc2ccc(-c3n[nH]c4c3Cc3sc(-c5cncc(C(=O)N6CCOCC6)c5)cc3-4)cc21` [Compound 31, (5-(3-(1-methyl-1H-indazol-6-yl)-1,4-dihydrothieno[2′,3′:4,5]cyclopenta[1,2-c]pyrazol-6-yl)pyridin-3-yl) (morpholino)methanone], for which the IC50 was under 1 nM at FLT3-D835Y mutant kinase, under 30 nM in test [1] (Homo sapiens) and over 1000 nM at MET kinase.
For `Cn1ncc2ccc(-c3n[nH]c4c3Cc3sc(-c5ccc(CN6CCOCC6)cc5F)cc3-4)cc21` [Compound 32, 4-(3-fluoro-4-(3-(1-methyl-1H-indazol-6-yl)-1,4-dihydrothieno [2′,3′:4,5]cyclopenta [1,2-c]pyrazol-6-yl)benzyl)morpholine], in that order: under 1 nM, 100 to 300 nM and over 1000 nM.
`Cc1ccc(-c2cc3c(s2)Cc2c(-c4ccc5cnn(C)c5c4)n[nH]c2-3)cn1` [Compound 33, 3-(1-methyl-1H-indazol-6-yl)-6-(6-methylpyridin-3-yl)-1,4-dihydrothieno [2′,3′:4,5]cyclopenta [1,2-c]pyrazole]: the IC50 on FLT3-D835Y mutant kinase was under 1 nM; in test [1], 30 to 100 nM; at MET kinase, over 1000 nM.
